{"source": "paper PMC10528180", "about": "(Foods, 2023)", "key": {"α-glucosidase [1]": {"biological_target": "T1, α-glucosidase (Saccharomyces cerevisiae, UniProt P53341)", "T1 construct": "purchased Sigma-Aldrich Co", "T1 sequence (P53341 whole entry)": "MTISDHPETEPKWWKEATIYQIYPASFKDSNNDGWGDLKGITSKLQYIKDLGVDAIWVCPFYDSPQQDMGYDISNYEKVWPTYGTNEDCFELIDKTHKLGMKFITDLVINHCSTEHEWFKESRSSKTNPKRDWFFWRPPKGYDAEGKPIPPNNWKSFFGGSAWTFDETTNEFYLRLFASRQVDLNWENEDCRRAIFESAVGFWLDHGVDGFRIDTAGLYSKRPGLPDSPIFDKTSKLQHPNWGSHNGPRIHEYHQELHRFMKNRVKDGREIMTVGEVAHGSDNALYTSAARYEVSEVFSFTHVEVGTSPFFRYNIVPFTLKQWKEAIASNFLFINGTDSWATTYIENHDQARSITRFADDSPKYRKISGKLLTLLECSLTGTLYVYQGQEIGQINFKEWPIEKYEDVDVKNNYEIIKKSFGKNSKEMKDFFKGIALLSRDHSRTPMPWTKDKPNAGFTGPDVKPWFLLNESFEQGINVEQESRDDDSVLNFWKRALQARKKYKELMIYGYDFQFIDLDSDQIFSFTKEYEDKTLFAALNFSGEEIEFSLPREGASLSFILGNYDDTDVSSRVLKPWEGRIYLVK", "assay": "Fluorescence quenching experiment with α-glucosidase (Stern-Volmer, double logarithmic, Van 't Hoff)", "assay_type": "binding", "conditions": "for Kd: Ka (binding constant) α-glucosidase", "experimental": "Based on the previously described techniques, the fluorescence quenching experiment was somewhat modified. […] The reaction solution’s fluorescence intensity was measured in a quartz colorimetric dish using a fluorescence spectrometer (F-7100, Tokyo, Japan) at wavelengths ranging from 295 to 500 nm (emission wavelength) and 280 nm ([…]) (1.0 cm path length). The 5.0 nm excitation and emission slit widths were predetermined.\nBy determining the quenching constant, it is possible to discriminate between dynamic and static protein fluorescence quenching caused by compounds [39]. […] With the increase in temperature, the binding of the complex is unstable, so the quenching constant decreases. The drop in fluorescence intensity brought on by the interaction of the quencher and the fluorescence group is what causes dynamic quenching. When the collision between the quencher and the fluorescence group intensifies as the temperature rises, the quenching constant rises. The quenching mechanism of the enzyme was further studied using the Stern–Volmer equation:(2) F0/F=1+Kqτ0Q=1+Ksv[Q], where Kq is the bimolecular quenching constant, F0 represents the fluorescence intensity of starch-digesting enzymes in the absence of inhibitors, F represents the fluorescence intensity of starch-digesting enzymes in the presence of inhibitors, and τ0 is the lifetime of the fluorophore in protein (about 10^−8 s).\nBy calculating the thermodynamic parameters of the quenching process, the binding affinity and the main force of the reaction process were evaluated. The thermodynamic parameters are calculated using the Van ’t Hoff equation:(4) lnKa=−△H/RT+△S/R. (5) △G=△H−T△S. where Ka is the binding constant, R is the universal gas constant, and T represents the test temperature (300.15 K, 305.15 K, 310.15 K). The thermodynamic parameters ΔH, ΔS, and ΔG represent enthalpy change, entropy change, and free energy change, respectively. […] The interaction forces in the reaction process can be roughly divided into four types: hydrophobic interaction, hydrogen bonding, electrostatic interaction, and van der Waals interaction."}, "α-glucosidase [2]": {"biological_target": "T1, α-glucosidase", "assay": "biochemical", "experimental": "The other reagents used in this experiment are analytically pure reagents purchased from Sigma-Aldrich Co. (St. Louis, MI, USA) unless specified otherwise.\nThe in vitro α-glucosidase activity assay was determined using spectrophotometry, as previously reported, with only minor modifications. In phosphate buffer with a pH of 6.8, 0.5 U/mL of α-glucosidase and the appropriate quantity of p-nitrophenyl-D-glucopyranoside (pNGP) were produced. […] Gradient dilution with a phosphate-buffered solution was used to create sample solutions of various concentrations. First, different concentrations of compound (10 μL), an enzyme solution (40 μL), and potassium phosphate buffer (100 μL) were pre-incubated in 96-well plates at 37 °C for 10 min.\nThe enzymatic inhibitory activity of the tested compounds was calculated using the following formula: Inhibition %=[(Abs control−Abs sample)/Abs control]×100\nThe IC50 values of the tested compounds were calculated using nonlinear fitting (logit method)."}}, "data": [{"compound": "O=c1c(O)c(-c2ccc(O)c(O)c2)oc2cc(O[C@@H]3O[C@H](CO)[C@@H](O)[C@H](O)[C@H]3O)cc(O)c12", "note": "[Quercimeritrin]", "values": [{"measurement": "fluorescence quenching mechanism, α-glucosidase", "setting": "α-glucosidase [1]", "result": "static quenching"}, {"measurement": "Kd", "setting": "α-glucosidase [1]; T 300.15 K", "result": 1.15, "unit": "µM"}, {"measurement": "Kd", "setting": "α-glucosidase [1]; T 305.15 K", "result": 9.62, "unit": "µM"}, {"measurement": "Kd", "setting": "α-glucosidase [1]; T 310.15 K", "result": 24.4, "unit": "µM"}, {"measurement": "Ksv (quenching constant) α-glucosidase", "setting": "α-glucosidase [1]; T 300.15 K", "result": "0.17 ±0.03 10^5 /M"}, {"measurement": "n (number of binding sites) α-glucosidase", "setting": "α-glucosidase [1]; T 300.15 K", "result": 1.35}, {"measurement": "ΔG α-glucosidase", "setting": "α-glucosidase [1]; T 300.15 K", "result": "-8.15 ± 2.22", "unit": "kcal/mol"}, {"measurement": "Ksv (quenching constant) α-glucosidase", "setting": "α-glucosidase [1]; T 305.15 K", "result": "0.19 ±0.02 10^5 /M"}, {"measurement": "n (number of binding sites) α-glucosidase", "setting": "α-glucosidase [1]; T 305.15 K", "result": 1.20}, {"measurement": "ΔG α-glucosidase", "setting": "α-glucosidase [1]; T 305.15 K", "result": "-7 ± 2.24", "unit": "kcal/mol"}, {"measurement": "Ka (binding constant) α-glucosidase", "setting": "α-glucosidase [1]; T 310.15 K", "result": "0.41 ± 0.06 10^5 /M"}, {"measurement": "Ksv (quenching constant) α-glucosidase", "setting": "α-glucosidase [1]; T 310.15 K", "result": "0.21 ±0.04 10^5 /M"}, {"measurement": "n (number of binding sites) α-glucosidase", "setting": "α-glucosidase [1]; T 310.15 K", "result": 1.09}, {"measurement": "ΔG α-glucosidase", "setting": "α-glucosidase [1]; T 310.15 K", "result": "-6.55 ± 1.87", "unit": "kcal/mol"}, {"measurement": "ΔH α-glucosidase", "setting": "α-glucosidase [1]; Van 't Hoff, 300.15-310.15 K", "result": "-56.6 ± 5.598", "unit": "kcal/mol"}, {"measurement": "ΔS α-glucosidase", "setting": "α-glucosidase [1]; Van 't Hoff, 300.15-310.15 K", "result": "-677.34 ±87.38", "unit": "J/mol/K"}, {"measurement": "n (number of binding sites) α-glucosidase", "setting": "α-glucosidase [1]; text summary over temperatures", "result": "~1"}, {"measurement": "IC50", "setting": "α-glucosidase [2]", "result": 79.9, "unit": "µM"}, {"measurement": "inhibition at 500 µM", "setting": "α-glucosidase [2]; read-out: α-Glucosidase inhibition", "result": 92, "unit": "%"}]}]}
